# Assays:
# HSC compartment = test: Flow cytometric quantitation of hematopoietic stem/progenitor populations and cellularity in bone marrow of treated mice; type: in vivo, C57BL/6NTac mice
# Protocol: HSC phenotype, cell-cycle progression, G-CSF neutralization, and CXCR4 MFI determination by FACS analysis was performed on whole bone marrow (WBM) cells harvested from a tibia and femur pair obtained from SHIPi and vehicle treated 8-12 week old male C57BL/6NTac mice (Taconic). Generation of the CD45.1×CD45.2 strain utilized in the CRU assay were obtained by intercrossing C57BL6/J (CD45.2) and B6.SJL (CD45.1), as previously described.^5 The SUNY Upstate Medical University Committee for Humane Use of Animals approved all animal experiments.
# In vivo administration of 3AC was previously described.^14 Briefly, 3AC is resuspended as an emulsion in 0.3% Klucel/H20. Mice were treated via intraperitoneal injection every 24 hrs for 5 days at a final concentration of 26.5 mg/kg. Analysis and transplants were performed on day 6. The 3AC derivative K118 (Soluble SHIPi) was suspended in pure H2O and heated at 100° C. for ˜15 min to allow the compound to enter solution. The delivery method was the same as with 3AC, however, the mice were treated for 5 days at a final concentration of 10 mg/kg. Vehicle cohorts for 3AC were treated with 0.3% Klucel/H20 and K118 were treated with pure H2O.
# Cell isolation was performed according to method detailed in Hazen et al.^6 Briefly, WBM was flushed from both femurs and tibias per mouse with a 25-gauge needle, red blood cell lysed (eBioscience), and resuspended in staining media comprised of Hanks Buffered Saline Solution (HBSS), 2% heat inactivated fetal bovine serum (FBS), and 10 mM HEPES (Sigma). The cells harvested for the CRU assay were flushed, red blood cell lysed, washed, and resuspended in sterile phosphate buffered saline (PBS). Peripheral blood mononuclear cells (PBMC) were collected via submandibular bleed in EDTA Micorvette tubes (SARSTEDT).
# All antibodies were from BD Biosciences or eBioscience. All WBM, PBMC and BM derived MSC cell populations were Fc blocked on ice for 10 min prior to antibody staining. Global reconstitution was determined by staining PBMC with CD45.1-PeCy7 and CD45.2-APC. Multi-lineage repopulation was determined by staining PBMC with CD3-FITC (145-2C11), CD19-PerCP5.5 (1D3), Mac1-PE (M1/70), Gr1-Alexa700 (RB6-8C5) and NK1.1-APC-Cy7 (PK136). The Lin−cKit+Sca1+CD34−Flk2− (LSKF34−) phenotype was utilized to determine frequency of LT-HSC, ST-HSC, and MPP; the stain was comprised of Lin-PerCP 5.5, cKit-APC (2B8), Sca1-PeCy7 (D7), CD34-FITC (RAM34), Flk2-PE (A2F10). LSKF-CXCR4 stain was used to determine surface expression of the homing marker CXCR4. All cells were washed twice with staining media, resuspended in staining media plus DAPI for dead cell exclusion, and then analyzed on a flow cytometer LSRII (BD Biosciences). All flow cytometry data was analyzed using FlowJo (9.4.3) software.
# LT-HSC = test: Cell cycle analysis of BM LT-HSC (Hoechst / Pyronin Y); type: in vivo, C57BL/6NTac mice; details: 3AC 26.5 mg/kg i.p. 5 days, vs vehicle
# Protocol: WBM cells were stained with LSKCD34 and fixed in BD Cytofix/Cytoperm buffer for 30 minutes on ice. Fixed cells were stained with 10 μM Hoechst 33342 (HO; Sigma-Aldrich) for 45 min at 37° C. The cells were then incubated with 5 μM Pyronin Y (PY; Sigma-Aldrich) in HBSS medium with 2% FBS in the presence of 50 μM verapamil (Sigma-Aldrich) for 30 minutes at 37° C., washed, and immediately analyzed by UV laser-equipped BD LSRII analyzer.
# HSC = test: CRU assay (competitive repopulating units), primary and secondary; type: in vivo, mice
# Protocol: CD45.1^+45.2^+-recipient mice were given a split dose of 550 Rads (x-ray source, RS2000-RAD source technologies, inc.) 4 hours apart for a lethal total dose of 1100 Rads. WBM (5×10^5) cells from 3AC (CD45.2) treated mice were competed with WBM cells from vehicle (CD45.1) treated mice and injected retro-orbitally into CD45.1^+45.2^+ hosts. PBMC multi-lineage reconstitution was evaluated every month post-transplant for 4 months. Transplanted mice were euthanized and serially transplanted to determine self-renewal capacity. Repopulating Units (RU) determination was previously decribed.^15 Briefly, RU=(C×CD45.2 repopulation %)/(100−CD45.2 repopulation %) where C=10^5 competitor cells.^6
# Normal Repopulating units (RU) are calculated based on total number of competitor cells transplanted. Due to the expansion in the bone marrow compartment of SHIPi treated mice, we calculated the absolute RU numbers based on RU output determined by CRU assay and total BM cellularity. Total BM cellularity was determined via hemacytometer (BioRAD, TC20 cell counter) based on a total BM cells obtained from an intact set of femurs and tibias for each mouse in the study. Absolute RU=(Total BM cellularity/5×10^5)×RU.
# PDGFRα+CD51+ MSC = test: In vivo MSC immunophenotyping by flow cytometry; set-up: species or system mice; details: 3AC 26.5 mg/kg i.p. 5 days, vs vehicle
# Protocol: PDGFRα^+CD51^+ MSC were detected using methods and reagents as described by Iyer et al.^8 Femurs, tibias, humeri, ulnas, radii, and pelvis were dissected; the bone fragments were cleaned, cut into tiny pieces, and then crushed using a mortar and pestle. The bone chips were then washed several times in HBSS supplemented with 2% heat-inactivated FBS (HBSS/2% HI-FBS) and HBSS only, and then spun at 350×g for 5 mins. The pellet was re-suspended in 3 mg/mL type I collagenase (Worthington) and 15 μg/mL DNAase (Sigma, St. Louis, Mo.) dissolved in HBSS and incubated at 37° C. for 30 min at 110 rpm, this step was repeated twice. Following incubation, mononuclear cells were obtained using a Ficoll gradient ([…] and Histopaque-1077; Sigma, St. Louis, Mo.), and were then used for further analysis. Cells were stained with antibodies as described in Iyer et al.^8
# G-CSF = G-CSF ELISA of serum of treated mice; type: in vivo; details: 3AC 26.5 mg/kg i.p. 5 days, vs vehicle
# Protocol: Peripheral blood was collected in serum separation microvette tubes (SARSTEDT). Tubes were kept at room temperature for 2 hrs. and then spun at 2000×g for 20 min as per manufacturers recommendation. Serum levels of G-CSF in treated mice were determined using a Mouse G-CSF Quantikine Elisa kit (R&D systems).
# [1] = system: radiation-induced myeloablation; test: Lymphocyte and WBC recovery in radiation induced bone marrow failure model; type: in vivo, C57BL/6J mice; details: 550 Rads sub-lethal irradiation, 3AC daily 7 days i.p., vs vehicle
# Protocol: We utilized a radiation-induced hematological myeblation to create our bone marrow failure model. C57BL/6J mice (8-12 week) (The Jackson Laboratory, Bar Harbor, Me.) were sub-lethally irradiated at 550 Rads. 3AC and vehicle were administered daily for 7 days post irradiation via IP injection. PB was collected by submandibular bleeding on days 8, 15, 22 and 32 and analyzed for WBC and lymphocyte counts [Thousands per microliter (K/uL)] on a Hemavet 950S (Drew Scientific, Waterbury, Conn., USA) analysis.
# [2] = cited from earlier work
# [3] = system: radiation-induced myeloablation; details: post radiation-induced myeloablation; cited from earlier work
# [4] = transient SHIPi treatment; cited from earlier work
# [5] = 3AC 26.5 mg/kg i.p. 5 days, BM, vs vehicle
# [6] = 3AC 26.5 mg/kg i.p. 5 days, vs vehicle
smiles,measurement,setting,value
CC(C)CCC[C@@H](C)[C@@H]1CC[C@H]2[C@@H]3CCC4C[C@H](N)CC[C@]4(C)[C@H]3CC[C@@]21C (stereo partly drawn) [3AC],absolute number of LSK cells,HSC compartment; [5],significantly increases
same,frequency of LSK cells,HSC compartment; [5],significantly increases
same,CXCR4 surface expression on expanded HSC pool,"HSC compartment; 3AC 26.5 mg/kg i.p. 5 days, MFI by FACS",does not cause a reduction
same,frequency of LT-HSC (LSKFlk2-CD34-) in BM,HSC compartment; [6],increases the frequency
same,frequency of MPP (LSKFlk2+CD34+) in BM,HSC compartment; [6],increases the frequency
same,frequency of ST-HSC (LSKFlk2-CD34+) in BM,HSC compartment; [6],increases the frequency
same,expansion in BM of cells with a primitive HSC phenotype,"HSC compartment; 3AC 26.5 mg/kg i.p. 5 days, frequency combined with BM cellularity",3-4 fold
same,bone marrow cellularity (BMC),"HSC compartment; 3AC 26.5 mg/kg i.p. every 24 hrs for 5 days, analysis day 6, vs vehicle",significant increase
same,frequency of LT-HSC in S and G2 phases of the cell cycle,LT-HSC,significantly greater frequency
same,CRU frequency,HSC; BM of 3AC vs vehicle donors,increases
same,increase in cells with HSC capacity (absolute CRU numbers),"HSC; after accounting for total BM cellularity, vs vehicle",~6 fold
same,global blood cell reconstitution by BM cells of treated donors,"HSC; primary CRU, 3AC-treated vs vehicle-treated donors, monthly for 4 months post-transplant",significantly greater
same,"lineage reconstitution (B, T, NK, myeloid)","HSC; primary CRU, entire post-transplant period",greater proportion of all major blood cell lineages analyzed
same,bias or impairment in lineage output after serial transfer,"HSC; secondary CRU hosts, 1 month post-transplant",did not observe a significant bias or impairment
same,repopulation of all major lineages in secondary hosts,"HSC; secondary CRU, vs competing vehicle BM",significantly higher
same,Pα+51+ MSC compartment size in BM,PDGFRα+CD51+ MSC,approximate doubling
same,G-CSF production in vivo,G-CSF,super-induces
same,G-CSF production in vivo,G-CSF; listed as SHIPi,increases
same,recovery of lymphocyte numbers,[1],significantly improved recovery
same,recovery of white blood cell (WBC) numbers,[1],significantly improved recovery
same,aqueous solubility,[2],poor aqueous solubility
same,recovery of neutrophil numbers,[3],more rapid recovery
same,recovery of platelet numbers,[3],more rapid recovery
same,development of pulmonary and gastrointestinal inflammation,[4],does not induce

# Source: US20200129523A1, “SHIP INHIBITION TO INDUCE EXPRESSION OF GRANULOCYTE COLONY STIMULATING FACTOR IN A SUBJECT” (THE RESEARCH FOUNDATION FOR THE STATE UNIVERSITY OF NEW YORK, priority 2014, published 2020)
